Data on three molecules can be found in patent US20240293588A1, “THERAPEUTIC CONJUGATES” (Starpharma Pty Ltd, priority 2020, published 2024).

As usually defined, the GI50 is the concentration giving 50% growth inhibition. High values mean less potent growth inhibition, low ones more potent growth inhibition.

Data set [1] has as its system SKOV-3 cells. Nature of the data set: GI50 panel (MTT assay), SKOV-3. It counts as cell-based. The conditions noted are these: Homo sapiens, SK-OV-3, 72 h.
The test system of data set [2] is SK-Br-3 cells. Nature of the data set: GI50 panel (MTT assay), SK-BR-3. The class given is cell-based. The conditions noted are these: Homo sapiens, SK-BR-3, 72 h.
Data set [3] has as its system NCI-N87 cells. Briefly: GI50 panel (MTT assay), NCI-N87. The class given is cell-based. The conditions noted are these: Homo sapiens, NCI-N87, 72 h. In general terms: Tetrazolium dyes change colour on reduction, which living cells bring about.
The test system of data set [4] is MDA-MB-231 cells. Briefly: GI50 panel (MTT assay), MDA-MB-231. It counts as cell-based. The conditions noted are these: Homo sapiens, MDA-MB-231, 72 h.
For data set [5], the system named is OE-19 cells. Briefly: GI50 panel (MTT assay), OE19. The class given is cell-based. The conditions noted are these: Homo sapiens, OE19, 72 h.
The test system of data set [6] is MDA-MB-231/HER2 tumours. Briefly: Tumour distribution of tritium-labelled MMAE-conjugated dendrimers. It counts as in vivo, NOD/SCID mice. The conditions noted are these: 3H label, 0.5 μCi via tail vein, 48 h, mean±SEM. Here is the method:
MDA-MB-231/HER2 cells (5×10^6 cells in 50 μL of PBS:Matrigel) were transplanted into the 4th mammary fat pad of female NOD/SCID mice (5-7 weeks old) subcutaneously. Solid tumours were allowed to grow to 100 mm^3 (approximately 3-4 weeks). The mice were divided into two different groups, consisting of six mice in each group. Compound 72 (control group) or Compound 127 (targeted group) (0.5 μCi in 100 μL, PBS pH 7) was then injected via tail vein under isoflurane sedation. The mice were anaesthetised with isoflurane 48 h later, and blood collected via cardiac puncture immediately prior to cervical dislocation. Selected organs (including tumour, liver, spleen, kidney, pancreas, lung, heart and brain) were subsequently removed, weighed and processed for tritium (^3H) biodistribution.

For data set [7], the target named is T1, HER2 (human epidermal growth factor receptor 2) on cells (human, UniProt P04626 23-1255).
T1 construct: whole, on cells; also called ERBB2; HER2 receptor
Nature of the data set: flow cytometry (Cy5), MDA-MB-231/HER2 cells, 24 h.

Data set [8] deals with T1, HER2 (human epidermal growth factor …). Nature of the data set: flow cytometry (Cy5), SKOV-3 cells, 24 h. (In general: A flow cytometer gives signals particle by particle.)

Consider `CS(=O)(=O)CCNCc1ccc(-c2ccc3ncnc(Nc4ccc(OCc5cccc(F)c5)c(Cl)c4)c3c2)o1` [Lapatinib, reference compound], for which the GI50 in data set [1] amounted to 7200 nM; in data set [2], 138 nM; in data set [3], 8.1 nM; in data set [4] it was 112000 nM; in data set [5], 200 nM.
Take “(MeTzPh)PEG4CO-NHPEG24CO—[N(PN)2][Lys]2[^3H-Lys]4[Lys]8[(α-NHGlu-VC-PAB-MMAE)8(ε-NH-COPEG1100)8], G3 [Compound 72]”: in data set [6], the “accumulation in HER2 positive tumours” value was found to be 1.88 % dose/g and the blood concentration is on record as 3.69 % dose/g.

B1: Nanobody*-N3/DBCO-NHCO-PEG12TCO/(MeTzPh)PEG4CO-NHPEG24CO-[N(PN)2][Lys]2[Lys]4[Lys]8[((α-NHCy5)1(α-NHGlu-VC-PAB-MMAE)7)(ε-NH-COPEG1100)8], Compound 123 (VHH)
VHH: EVQLVESGGSLVQPGGSLRLSCAASGFTFDDYAMSWVRQVPGKGLEWVSSINWSGTHTDYADSVKGRFTISRNNANNTLYLQMNSLKSEDTAVYYCAKNWRDAGTTWFEKSGSAGQGTQVTVSS
modifications: C-terminal # (unnatural amino acid, p-azido-phenylalanine) clicked to DBCO-NHCO-PEG12-TCO, joined to the tetrazine at the core of the G3 lysine dendrimer (1 Cy5, 7 Glu-VC-PAB-MMAE, 8 PEG1100)
notes: T0004 r280 names the protein Nanobody*; No synthesis paragraph for this compound; also called 2D3 nanobody targeted dendrimer
B1: the results for the “fold fluorescence over Compound 71 (untargeted control)” value in data set [7] and in data set [8] were approximately 9 fold and approximately 16 fold, respectively.
